Source: ChEMBL document CHEMBL1275355, “Molecular modeling study on potent and selective adenosine A(3) receptor agonists” (Bioorg Med Chem, 2010)

How the values were obtained:
Homo sapiens = organism: Homo sapiens; test: Selectivity ratio of Ki for human adenosine A2A receptor to Ki for human adenosine A3 receptor
[1] = target: Adenosine receptors; A1 & A3 (Homo sapiens) (UniProt P30542+P0DMS8); test: Selectivity ratio of Ki for human adenosine A1 receptor to Ki for human adenosine A3 receptor
Adenosine receptor A3 = target: T1, Adenosine receptor A3 (Homo sapiens, UniProt P0DMS8); test: Binding affinity to human adenosine A3 receptor
T1 sequence (P0DMS8 whole entry): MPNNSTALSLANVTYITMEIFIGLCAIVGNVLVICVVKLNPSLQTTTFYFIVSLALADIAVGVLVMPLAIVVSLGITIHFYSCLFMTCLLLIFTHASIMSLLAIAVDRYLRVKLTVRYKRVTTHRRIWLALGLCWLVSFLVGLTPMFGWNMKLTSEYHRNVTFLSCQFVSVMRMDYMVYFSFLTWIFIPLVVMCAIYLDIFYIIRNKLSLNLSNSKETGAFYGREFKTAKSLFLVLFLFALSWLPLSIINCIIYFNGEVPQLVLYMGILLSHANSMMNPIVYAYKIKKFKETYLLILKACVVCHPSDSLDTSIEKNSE

Adenosine receptor A1 = target: T2, Adenosine receptor A1 (Homo sapiens, UniProt P30542); test: Binding affinity to human adenosine A1 receptor
T2 sequence (P30542 whole entry): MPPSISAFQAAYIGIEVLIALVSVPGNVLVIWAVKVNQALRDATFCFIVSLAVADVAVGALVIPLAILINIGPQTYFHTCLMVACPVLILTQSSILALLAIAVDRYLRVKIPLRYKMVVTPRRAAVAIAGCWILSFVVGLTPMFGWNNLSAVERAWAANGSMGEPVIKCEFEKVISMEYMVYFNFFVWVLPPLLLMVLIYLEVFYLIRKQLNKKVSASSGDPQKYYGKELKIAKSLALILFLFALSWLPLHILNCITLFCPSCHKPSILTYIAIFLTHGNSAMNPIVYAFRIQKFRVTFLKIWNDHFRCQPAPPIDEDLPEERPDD

Adenosine receptor A2a = Adenosine receptor A2a (Homo sapiens, UniProt P29274); test: Binding affinity to human adenosine A2A receptor
Adenosine receptor A2a, sequence (P29274 whole entry): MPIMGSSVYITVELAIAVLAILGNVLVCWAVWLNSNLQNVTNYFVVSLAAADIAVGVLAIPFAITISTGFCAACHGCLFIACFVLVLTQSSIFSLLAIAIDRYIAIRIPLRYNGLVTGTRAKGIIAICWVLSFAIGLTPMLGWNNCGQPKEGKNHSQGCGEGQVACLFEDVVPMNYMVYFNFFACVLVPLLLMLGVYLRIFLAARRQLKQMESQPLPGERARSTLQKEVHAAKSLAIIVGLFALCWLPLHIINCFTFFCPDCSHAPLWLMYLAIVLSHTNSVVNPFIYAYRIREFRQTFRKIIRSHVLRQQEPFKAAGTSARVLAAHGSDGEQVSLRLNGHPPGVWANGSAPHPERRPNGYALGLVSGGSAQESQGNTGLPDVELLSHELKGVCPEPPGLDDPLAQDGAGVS

Row | Ratio Ki (Homo sapiens) | Ratio Ki [1] | Ki (Adenosine receptor A3; read-out: pKi (converted)) [nM] | Ki (Adenosine receptor A1) [nM] | Ki (Adenosine receptor A3; read-out: Ki) [nM] | Ki (Adenosine receptor A2a) [nM] | Compound
1 | 21300 | 30900 | 0.331 |  |  |  | CNC(=O)[C@H]1O[C@@H](n2cnc3c(NC)nc(C#Cc4ccc(C(C)=O)cc4)nc32)[C@H](O)[C@@H]1O
2 | 29500 | 12400 |  |  |  |  | CNC(=O)[C@H]1O[C@@H](n2cnc3c(NC)nc(C#Cc4ccc(F)cc4)nc32)[C@H](O)[C@@H]1O
3 | 115 | 85 |  |  |  |  | CNC(=O)[C@H]1O[C@@H](n2cnc3c(NC)nc(C#Cc4ccccc4)nc32)[C@H](O)[C@@H]1O

More lines, now with the values behind:

Row | Compound | Ratio Ki (Homo sapiens) | Ratio Ki [1] | Ki (Adenosine receptor A3; read-out: pKi (converted)) [nM] | Ki (Adenosine receptor A1) [nM] | Ki (Adenosine receptor A3; read-out: Ki) [nM] | Ki (Adenosine receptor A2a) [nM]
4 | CNC(=O)[C@H]1O[C@@H](n2cnc3c(NC)nc(C#Cc4ccccn4)nc32)[C@H](O)[C@@H]1O | 60800 | 21800 |  |  |  | 
5 | CNC(=O)[C@H]1O[C@@H](n2cnc3c(N)nc(C#Cc4ccccc4)nc32)[C@H](O)[C@@H]1O |  |  |  | 3920 | 7.3 | 1760
6 | CONc1nc(C#Cc2ccccc2)nc2c1ncn2[C@@H]1O[C@H](CO)[C@@H](O)[C@H]1O |  |  | 3.98 |  |  | 
